Experimental data published in US4303785A, “Antitumor anthracycline antibiotics” (priority 1978, dated 1981).

Test system: L1210 cells
Experiment: animal or person
Assay type: in vivo, CDF1 mice
Details: for Antitumor Activity (T/C, prolongation rate of survival day): once daily for 10 days; for response vs control in vivo at 0.625 mg/kg / response vs control in vivo at 1.25 mg/kg / response vs control in vivo at 5 mg/kg / response vs control in vivo at 0.15 mg/kg / response vs control in vivo at 0.31 mg/kg / response vs control in vivo at 2.5 mg/kg: Mus musculus, L1210, ip, 1080 h; for response vs control in vivo at 0.625 mg/kg: read-out: Antitumor Activity (T/C, prolongation rate of survival day), 0.625 mg/kg/day i.p., once daily for 10 days; for response vs control in vivo at 1.25 mg/kg: read-out: Antitumor Activity (T/C, prolongation rate of survival day), 1.25 mg/kg/day i.p., once daily for 10 days; for response vs control in vivo at 5 mg/kg: read-out: Antitumor Activity (T/C, prolongation rate of survival day), 5 mg/kg/day i.p., once daily for 10 days; for response vs control in vivo at 0.15 mg/kg: read-out: Antitumor Activity (T/C, prolongation rate of survival day), 0.15 mg/kg/day i.p., once daily for 10 days; for response vs control in vivo at 0.31 mg/kg: read-out: Antitumor Activity (T/C, prolongation rate of survival day), 0.31 mg/kg/day i.p., once daily for 10 days; for response vs control in vivo at 2.5 mg/kg: read-out: Antitumor Activity (T/C, prolongation rate of survival day), 2.5 mg/kg/day i.p., once daily for 10 days
Procedure: D. Representative compounds of general formula I" were tested against experimental animal tumors as follows: […]
CDF1 mice were administered intraperitoneally (i.p.) with 1×10^5 cells/mouse of L1210 cells. After 24 hours had elapsed since inoculation, the mice were administered the test compounds intraperitoneally once daily for 10 consecutive days and observed for a 45 day period.
The antitumor activity was shown by the prolongation rate of survival day (T/C, %) to the survival day of control mice injected with physiological saline.

SMILES | Antitumor Activity (T/C, prolongation rate of survival day) (0.31 mg/kg/day i.p.) [%] | Antitumor Activity (T/C, prolongation rate of survival day) (2.5 mg/kg/day i.p.) [%] | response vs control in vivo at 0.625 mg/kg [%] | response vs control in vivo at 1.25 mg/kg [%] | response vs control in vivo at 5 mg/kg [%] | Antitumor Activity (T/C, prolongation rate of survival day) (0.625 mg/kg/day i.p.) [%] | Antitumor Activity (T/C, prolongation rate of survival day) (1.25 mg/kg/day i.p.) [%] | Antitumor Activity (T/C, prolongation rate of survival day) (5 mg/kg/day i.p.) [%] | Antitumor Activity (T/C, prolongation rate of survival day) (0.15 mg/kg/day i.p.) [%] | response vs control in vivo at 0.15 mg/kg [%] | response vs control in vivo at 0.31 mg/kg [%] | response vs control in vivo at 2.5 mg/kg [%]
COc1cccc2c1C(=O)c1c(O)c3c(c(O)c1C2=O)C[C@@](O)(C(=O)COC(C)=O)C[C@@H]3O[C@H]1C[C@H](N)[C@H](OC2CCCCO2)[C@H](C)O1 (single isomer, unassigned) [Example 1-a, 14-O-acetyl-4'-O-tetrahydropyranyl adriamycin a] | 203 | 239 | 195 | 228 | 225 | – | – | – | – | – | – | –
COc1cccc2c1C(=O)c1c(O)c3c(c(O)c1C2=O)C[C@@](O)(C(=O)COC(C)=O)C[C@@H]3O[C@H]1C[C@H](N)[C@H](OC2CCCCO2)[C@H](C)O1 (single isomer, unassigned) [Example 1-b, 14-O-acetyl-4'-O-tetrahydropyranyl adriamycin b] | 145 | 218 | – | – | – | 184 | 220 | 241 | – | – | – | –
COc1cccc2c1C(=O)c1c(O)c3c(c(O)c1C2=O)C[C@@](O)(C(=O)CO)C[C@@H]3O[C@H]1C[C@H](N)[C@H](OC2CCCO2)[C@H](C)O1 (single isomer, unassigned) [Example 5-a, 4'-O-tetrahydrofuranyl adriamycin a] | 115 | 288 | – | – | – | 135 | 189 | 212 | 115 | – | – | –
COc1cccc2c1C(=O)c1c(O)c3c(c(O)c1C2=O)C[C@@](O)(C(=O)CO)C[C@@H]3O[C@H]1C[C@H](N)[C@H](OC2CCCO2)[C@H](C)O1 (single isomer, unassigned) [Example 5-b, 4'-O-tetrahydrofuranyl adriamycin b] | 128 | 230 | – | – | – | 141 | 154 | 256 | 122 | – | – | –
CCOC(C)O[C@@H]1[C@H](C)O[C@@H](O[C@H]2C[C@](O)(C(=O)CO)Cc3c(O)c4c(c(O)c32)C(=O)c2c(OC)cccc2C4=O)C[C@@H]1N (single isomer, unassigned) [Example 7-a, 4'-O-(1-ethyloxyethyl) adriamycin a] | – | 277 | 127 | 145 | – | – | – | 108 | – | 96 | 101 | –
CCOC(C)O[C@@H]1[C@H](C)O[C@@H](O[C@H]2C[C@](O)(C(=O)CO)Cc3c(O)c4c(c(O)c32)C(=O)c2c(OC)cccc2C4=O)C[C@@H]1N (single isomer, unassigned) [Example 7-b, 4'-O-(1-ethyloxyethyl) adriamycin b] | 108 | 151 | – | – | – | 127 | 157 | 211 | 108 | – | – | –
CCCCOC(C)O[C@@H]1[C@H](C)O[C@@H](O[C@H]2C[C@](O)(C(=O)CO)Cc3c(O)c4c(c(O)c32)C(=O)c2c(OC)cccc2C4=O)C[C@@H]1N (single isomer, unassigned) [Example 8-a, 4'-O-(1-butyloxyethyl) adriamycin a] | – | – | 119 | 125 | – | – | – | 163 | – | 100 | 100 | 138
CCCCOC(C)O[C@@H]1[C@H](C)O[C@@H](O[C@H]2C[C@](O)(C(=O)CO)Cc3c(O)c4c(c(O)c32)C(=O)c2c(OC)cccc2C4=O)C[C@@H]1N (single isomer, unassigned) [Example 8-b, 4'-O-(1-butyloxyethyl) adriamycin b] | 100 | 138 | – | – | – | 106 | 119 | 288 | 100 | – | – | –
COc1cccc2c1C(=O)c1c(O)c3c(c(O)c1C2=O)C[C@@](O)(C(=O)CO)C[C@@H]3O[C@H]1C[C@H](N)[C@H](OC(C)OCC(C)C)[C@H](C)O1 (single isomer, unassigned) [Example 9-a, 4'-O-(1-isobutyloxyethyl) adriamycin a] | – | – | 112 | 125 | – | – | – | 257 | – | 105 | 105 | 151
COc1cccc2c1C(=O)c1c(O)c3c(c(O)c1C2=O)C[C@@](O)(C(=O)CO)C[C@@H]3O[C@H]1C[C@H](N)[C@H](OC(C)OCC(C)C)[C@H](C)O1 (single isomer, unassigned) [Example 9-b, 4'-O-(1-isobutyloxyethyl) adriamycin b] | 118 | 158 | – | – | – | 105 | 118 | 303 | 99 | – | – | –
COc1cccc2c1C(=O)c1c(O)c3c(c(O)c1C2=O)C[C@@](O)(C(=O)CO)C[C@@H]3O[C@H]1C[C@H](N)[C@H](OC(C)OCCCCCC(C)C)[C@H](C)O1 (single isomer, unassigned) [Example 10-a, 4'-O-(1-(6-methylheptyloxy)ethyl) adriamycin a] | – | – | 99 | 118 | 125 | – | – | – | – | 105 | 92 | 125
COc1cccc2c1C(=O)c1c(O)c3c(c(O)c1C2=O)C[C@@](O)(C(=O)CO)C[C@@H]3O[C@H]1C[C@H](N)[C@H](OC(C)OCCCCCC(C)C)[C@H](C)O1 (single isomer, unassigned) [Example 10-b, 4'-O-(1-(6-methylheptyloxy)ethyl) adriamycin b] | 105 | 105 | – | – | – | 112 | 112 | 118 | 105 | – | – | –
COc1cccc2c1C(=O)c1c(O)c3c(c(O)c1C2=O)C[C@@](O)(C(=O)CO)C[C@@H]3O[C@H]1C[C@H](N)[C@H](OC(C)OC2CCCCC2)[C@H](C)O1 (single isomer, unassigned) [Example 11-a, 4'-O-(1-cyclohexyloxyethyl) adriamycin a] | – | – | 105 | 118 | – | – | – | 184 | – | 105 | 99 | 125
COc1cccc2c1C(=O)c1c(O)c3c(c(O)c1C2=O)C[C@@](O)(C(=O)CO)C[C@@H]3O[C@H]1C[C@H](N)[C@H](OC(C)OC2CCCCC2)[C@H](C)O1 (single isomer, unassigned) [Example 11-b, 4'-O-(1-cyclohexyloxyethyl) adriamycin b] | 105 | 125 | – | – | – | 105 | 105 | 145 | 105 | – | – | –
COc1cccc2c1C(=O)c1c(O)c3c(c(O)c1C2=O)C[C@@](O)(C(C)=O)C[C@@H]3O[C@H]1C[C@H](N)[C@H](OC2CCCC(OC)O2)[C@H](C)O1 (single isomer, unassigned) [Example 14-a, 4'-O-(6-methoxytetrahydropyranyl) daunomycin a] | – | – | 100 | 106 | – | – | – | 232 | – | 100 | 100 | 125
COc1cccc2c1C(=O)c1c(O)c3c(c(O)c1C2=O)C[C@@](O)(C(C)=O)C[C@@H]3O[C@H]1C[C@H](N)[C@H](OC2CCCC(OC)O2)[C@H](C)O1 (single isomer, unassigned) [Example 14-b, 4'-O-(6-methoxytetrahydropyranyl) daunomycin b] | 100 | 131 | – | – | – | 106 | 113 | 463 | 94 | – | – | –
